Laboratory results reported in US20130231346A1, “METHODS OF TREATING CANCER” (GLAXOSMITHKLINE INTELLECTUAL PROPERTY (NO.2) LIMITED, priority 2010, published 2013).

Columns and labels:
COR-L23 NSCLC cells = experiment: Caspase 3/7 activation, COR-L23; format: cell-based; set-up: key: −: lack of caspase 3/7 activation after 24 hours of compound treatment; ++: moderate; +++: strong; ++++: very strong; details: COR-L23, KRAS^G12V; BRG1 WT, LKB1 WT, CDKN2A WT; 24 hours
Method: (§1) A panel of 24 non-small cell lung carcinoma (NSCLC) cell lines harboring RAS mutations was analyzed for genomic alterations, gene expression profiling and protein phosphorylation in MAPK and PI3K pathways. Inhibition of cell growth and induction of apoptosis were determined by CellTiter-Glo® and caspase 3/7 activation assays after 72 and 24 hours of treatment, respectively.

H23 NSCLC cells = experiment: Caspase 3/7 activation, H23; format: cell-based; set-up: key: −: lack of caspase 3/7 activation after 24 hours of compound treatment; ++: moderate; +++: strong; ++++: very strong; details: H23, KRAS^G12c; BRG1 MUT, LKB1 MUT, CDKN2A WT; 24 hours
Method: (§2) Inhibition of cell growth and induction of apoptosis were determined by CellTiter-Glo® and caspase 3/7 activation assays after 72 and 24 hours of treatment, respectively.

H2030 NSCLC cells = experiment: Caspase 3/7 activation, H2030; format: cell-based; set-up: key: −: lack of caspase 3/7 activation after 24 hours of compound treatment; ++: moderate; +++: strong; ++++: very strong; details: H2030, KRAS^G12c; BRG1 MUT, LKB1 MUT, CDKN2A WT; 24 hours
Method: as §2

H2347 NSCLC cells = experiment: Caspase 3/7 activation, H2347; format: cell-based; set-up: key: −: lack of caspase 3/7 activation after 24 hours of compound treatment; ++: moderate; +++: strong; ++++: very strong; details: H2347, KRAS^Q61K; BRG1 WT, LKB1 WT, CDKN2A WT; 24 hours
Method: as §2

A549 NSCLC cells = experiment: Caspase 3/7 activation, A549; format: cell-based; set-up: key: −: lack of caspase 3/7 activation after 24 hours of compound treatment; ++: moderate; +++: strong; ++++: very strong; details: A549, KRAS^G12S; BRG1 MUT, LKB1 MUT, CDKN2A MUT; 24 hours
Method: as §2

H1155 NSCLC cells = experiment: Caspase 3/7 activation, H1155; format: cell-based; set-up: key: −: lack of caspase 3/7 activation after 24 hours of compound treatment; ++: moderate; +++: strong; ++++: very strong; details: H1155, KRAS^Q61H; BRG1 WT, LKB1 WT, CDKN2A WT; 24 hours
Method: as §1

HOP62 NSCLC cells = experiment: Caspase 3/7 activation, HOP62; format: cell-based; set-up: key: −: lack of caspase 3/7 activation after 24 hours of compound treatment; ++: moderate; +++: strong; ++++: very strong; details: HOP62, KRAS^G12c; BRG1 WT, LKB1 WT, CDKN2A MUT; 24 hours
Method: as §1

[1] = test system: RAS-mutant NSCLC cell lines; experiment: Inhibition of cell growth (CellTiter-Glo) in panel of RAS-mutant NSCLC cell lines; details: Ras mut NSCLC cell lines; CellTiter-Glo, 72 hours of treatment
Method: Cells are plated in 384-well plates at 500 cells/well in culture media appropriate for each cell type, supplemented with 10% FBS and 1% penicillin/streptomycin, and incubated overnight at 37° C., 5% CO2. Cells are treated in a grid manner with dilution of Compound A^2 (20 dilutions, including no compound, of 2-fold dilutions starting from 1-20 μM depending of compound) from left to right on 384-well plate and also treated with Compound B^2 (20 dilutions, including no compound, of 2-fold dilutions starting from 1-20 μM depending of compound) from top to bottom on 384-well plate and incubated as above for a further 72 hours. In some instances compounds are added in a staggered manner and incubation time can be extended up to 7 days. Cell growth is measured using CellTiter-Glo® reagent according to the manufacturer's protocol and signals are read on a PerkinElmer EnVision™ reader set for luminescence mode with a 0.5-second read.
Results are expressed as a percentage of the t=0 value and plotted against compound(s) concentration. The t=0 value is normalized to 100% and represents the number of cells present at the time of compound addition. The cellular response is determined for each compound and/or compound combination using a 4- or 6-parameter curve fit of cell viability against concentration using the IDBS XLfit plug-in for Microsoft Excel software and determining the concentration required for 50% inhibition of cell growth (gIC50). Background correction is made by subtraction of values from wells containing no cells.
as §1

H1355 NSCLC cells = experiment: Caspase 3/7 activation, H1355; format: cell-based; set-up: key: −: lack of caspase 3/7 activation after 24 hours of compound treatment; ++: moderate; +++: strong; ++++: very strong; details: H1355, KRAS^G13C; BRG1 NULL, LKB1 MUT, CDKN2A WT; 24 hours
Method: as §1

SW1573 NSCLC cells = experiment: Caspase 3/7 activation, SW1573; format: cell-based; set-up: key: −: lack of caspase 3/7 activation after 24 hours of compound treatment; ++: moderate; +++: strong; ++++: very strong; details: SW1573, KRAS^G12C; BRG1 WT, LKB1 WT, CDKN2A MUT; 24 hours
Method: as §1

H441 NSCLC cells = experiment: Caspase 3/7 activation, H441; format: cell-based; set-up: key: −: lack of caspase 3/7 activation after 24 hours of compound treatment; ++: moderate; +++: strong; ++++: very strong; details: H441, KRAS^G12V; BRG1 WT, LKB1 WT, CDKN2A WT; 24 hours
Method: as §2

H358 NSCLC cells = experiment: Caspase 3/7 activation, H358; format: cell-based; set-up: key: −: lack of caspase 3/7 activation after 24 hours of compound treatment; ++: moderate; +++: strong; ++++: very strong; details: H358, KRAS^G12c; BRG1 WT, LKB1 WT, CDKN2A WT; 24 hours
Method: as §2

H2122 NSCLC cells = experiment: Caspase 3/7 activation, H2122; format: cell-based; set-up: key: −: lack of caspase 3/7 activation after 24 hours of compound treatment; ++: moderate; +++: strong; ++++: very strong; details: H2122, KRAS^G12c; BRG1 WT, LKB1 MUT, CDKN2A MUT; 24 hours
Method: as §2

H2291 NSCLC cells = experiment: Caspase 3/7 activation, H2291; format: cell-based; set-up: key: −: lack of caspase 3/7 activation after 24 hours of compound treatment; ++: moderate; +++: strong; ++++: very strong; details: H2291, KRAS^G12F; BRG1 WT, LKB1 WT, CDKN2A WT; 24 hours
Method: as §2

H460 NSCLC cells = experiment: Caspase 3/7 activation, H460; format: cell-based; set-up: key: −: lack of caspase 3/7 activation after 24 hours of compound treatment; ++: moderate; +++: strong; ++++: very strong; details: H460, KRAS^Q61H; BRG1 WT, LKB1 MUT, CDKN2A MUT; 24 hours
Method: as §1

H2009 NSCLC cells = experiment: Caspase 3/7 activation, H2009; format: cell-based; set-up: key: −: lack of caspase 3/7 activation after 24 hours of compound treatment; ++: moderate; +++: strong; ++++: very strong; details: H2009, KRAS^G12A; BRG1 WT, LKB1 WT, CDKN2A WT; 24 hours
Method: as §2

H157 NSCLC cells = experiment: Caspase 3/7 activation, H157; format: cell-based; set-up: key: −: lack of caspase 3/7 activation after 24 hours of compound treatment; ++: moderate; +++: strong; ++++: very strong; details: H157, KRAS^G12R; BRG1 MUT, LKB1 MUT, CDKN2A WT; 24 hours
Method: as §1

A427 NSCLC cells = experiment: Caspase 3/7 activation, A427; format: cell-based; set-up: key: −: lack of caspase 3/7 activation after 24 hours of compound treatment; ++: moderate; +++: strong; ++++: very strong; details: A427, KRAS^G12D; BRG1 MUT, LKB1 MUT, CDKN2A WT; 24 hours
Method: as §2

SW900 NSCLC cells = experiment: Caspase 3/7 activation, SW900; format: cell-based; set-up: key: −: lack of caspase 3/7 activation after 24 hours of compound treatment; ++: moderate; +++: strong; ++++: very strong; details: SW900, KRAS^G12V; BRG1 WT, LKB1 WT, CDKN2A MUT; 24 hours
Method: as §2

| Structure (SMILES) | Apoptosis Response (caspase 3/7 activation) (COR-L23 NSCLC cells) | Apoptosis Response (caspase 3/7 activation) (H23 NSCLC cells) | Apoptosis Response (caspase 3/7 activation) (H2030 NSCLC cells) | Apoptosis Response (caspase 3/7 activation) (H2347 NSCLC cells) | Apoptosis Response (caspase 3/7 activation) (A549 NSCLC cells) | Apoptosis Response (caspase 3/7 activation) (H1155 NSCLC cells) | Apoptosis Response (caspase 3/7 activation) (HOP62 NSCLC cells) | Response Rate (sensitivity/total lines tested), Cell growth inhibition [1] | Apoptosis Response (caspase 3/7 activation) (H1355 NSCLC cells) | Apoptosis Response (caspase 3/7 activation) (SW1573 NSCLC cells) | Apoptosis Response (caspase 3/7 activation) (H441 NSCLC cells) | Apoptosis Response (caspase 3/7 activation) (H358 NSCLC cells) | Apoptosis Response (caspase 3/7 activation) (H2122 NSCLC cells) | Apoptosis Response (caspase 3/7 activation) (H2291 NSCLC cells) | Apoptosis Response (caspase 3/7 activation) (H460 NSCLC cells) | Apoptosis Response (caspase 3/7 activation) (H2009 NSCLC cells) | Apoptosis Response (caspase 3/7 activation) (H157 NSCLC cells) | Apoptosis Response (caspase 3/7 activation) (A427 NSCLC cells) | Apoptosis Response (caspase 3/7 activation) (SW900 NSCLC cells) |
| --- | --- | --- | --- | --- | --- | --- | --- | --- | --- | --- | --- | --- | --- | --- | --- | --- | --- | --- | --- |
| CC(=O)Nc1cccc(-n2c(=O)n(C3CC3)c(=O)c3c(Nc4ccc(I)cc4F)n(C)c(=O)c(C)c32)c1 [Compound A, N-{3-[3-cyclopropyl-5-(2-fluoro-4-iodo-phenylamino)-6,8-dimethyl-2,4,7-trioxo-3,4,6,7-tetrahydro-2H-pyrido[4,3-d]pyrimidin-1-yl]phenyl}acetamide] | − | − | − | ++ | − | − | − | 38% (9/24) | − | − | − | − | ++ | ++ | − | − | − | − | − |
| CC(=O)O[C@@]12CO[C@@H]1C[C@H](O)[C@@]1(C)C(=O)[C@H](O)C3=C(C)[C@@H](OC(=O)[C@H](O)[C@@H](NC(=O)OC(C)(C)C)c4ccccc4)C[C@@](O)([C@@H](OC(=O)c4ccccc4)[C@H]21)C3(C)C [Docataxel, (2R,3S)—N-carboxy-3-phenylisoserine,N-tert-butyl ester, 13-ester with 5β-20-epoxy-1,2α,4,7β,10β,13α-hexahydroxytax-11-en-9-one 4-acetate 2-benzoate, trihydrate] | − | +++ | ++ | − | − | − | ++ | 88% (21/24) | − | − | − | ++ | − | − | ++ | − | ++ | ++ | − |
